# Results from ChEMBL document CHEMBL3396973, “Synthesis and biological evaluation of new pyrazol-4-ylpyrimidine derivatives as potential ROS1 kinase inhibitors” (Eur J Med Chem, 2015).
# Assays:
# [1] = biological target: T1, Proto-oncogene tyrosine-protein kinase ROS (Homo sapiens, UniProt P08922)
# [2] = biological target: T2, Hepatocyte growth factor receptor (Homo sapiens, UniProt P08581)
# [3] = biological target: T1, Proto-oncogene tyrosine-protein kinase ROS; test: Inhibition of ROS1 (unknown origin) by HotSpot assay
# [4] = biological target: T1, Proto-oncogene tyrosine-protein kinase ROS; remark: listed apart in the source
# [5] = biological target: T2, Hepatocyte growth factor receptor; remark: listed apart in the source
# [6] = biological target: ALK tyrosine kinase receptor (Homo sapiens, UniProt Q9UM73)
# [7] = biological target: T1, Proto-oncogene tyrosine-protein kinase ROS; remark: listed apart in the source
# T1 sequence (P08922 whole entry): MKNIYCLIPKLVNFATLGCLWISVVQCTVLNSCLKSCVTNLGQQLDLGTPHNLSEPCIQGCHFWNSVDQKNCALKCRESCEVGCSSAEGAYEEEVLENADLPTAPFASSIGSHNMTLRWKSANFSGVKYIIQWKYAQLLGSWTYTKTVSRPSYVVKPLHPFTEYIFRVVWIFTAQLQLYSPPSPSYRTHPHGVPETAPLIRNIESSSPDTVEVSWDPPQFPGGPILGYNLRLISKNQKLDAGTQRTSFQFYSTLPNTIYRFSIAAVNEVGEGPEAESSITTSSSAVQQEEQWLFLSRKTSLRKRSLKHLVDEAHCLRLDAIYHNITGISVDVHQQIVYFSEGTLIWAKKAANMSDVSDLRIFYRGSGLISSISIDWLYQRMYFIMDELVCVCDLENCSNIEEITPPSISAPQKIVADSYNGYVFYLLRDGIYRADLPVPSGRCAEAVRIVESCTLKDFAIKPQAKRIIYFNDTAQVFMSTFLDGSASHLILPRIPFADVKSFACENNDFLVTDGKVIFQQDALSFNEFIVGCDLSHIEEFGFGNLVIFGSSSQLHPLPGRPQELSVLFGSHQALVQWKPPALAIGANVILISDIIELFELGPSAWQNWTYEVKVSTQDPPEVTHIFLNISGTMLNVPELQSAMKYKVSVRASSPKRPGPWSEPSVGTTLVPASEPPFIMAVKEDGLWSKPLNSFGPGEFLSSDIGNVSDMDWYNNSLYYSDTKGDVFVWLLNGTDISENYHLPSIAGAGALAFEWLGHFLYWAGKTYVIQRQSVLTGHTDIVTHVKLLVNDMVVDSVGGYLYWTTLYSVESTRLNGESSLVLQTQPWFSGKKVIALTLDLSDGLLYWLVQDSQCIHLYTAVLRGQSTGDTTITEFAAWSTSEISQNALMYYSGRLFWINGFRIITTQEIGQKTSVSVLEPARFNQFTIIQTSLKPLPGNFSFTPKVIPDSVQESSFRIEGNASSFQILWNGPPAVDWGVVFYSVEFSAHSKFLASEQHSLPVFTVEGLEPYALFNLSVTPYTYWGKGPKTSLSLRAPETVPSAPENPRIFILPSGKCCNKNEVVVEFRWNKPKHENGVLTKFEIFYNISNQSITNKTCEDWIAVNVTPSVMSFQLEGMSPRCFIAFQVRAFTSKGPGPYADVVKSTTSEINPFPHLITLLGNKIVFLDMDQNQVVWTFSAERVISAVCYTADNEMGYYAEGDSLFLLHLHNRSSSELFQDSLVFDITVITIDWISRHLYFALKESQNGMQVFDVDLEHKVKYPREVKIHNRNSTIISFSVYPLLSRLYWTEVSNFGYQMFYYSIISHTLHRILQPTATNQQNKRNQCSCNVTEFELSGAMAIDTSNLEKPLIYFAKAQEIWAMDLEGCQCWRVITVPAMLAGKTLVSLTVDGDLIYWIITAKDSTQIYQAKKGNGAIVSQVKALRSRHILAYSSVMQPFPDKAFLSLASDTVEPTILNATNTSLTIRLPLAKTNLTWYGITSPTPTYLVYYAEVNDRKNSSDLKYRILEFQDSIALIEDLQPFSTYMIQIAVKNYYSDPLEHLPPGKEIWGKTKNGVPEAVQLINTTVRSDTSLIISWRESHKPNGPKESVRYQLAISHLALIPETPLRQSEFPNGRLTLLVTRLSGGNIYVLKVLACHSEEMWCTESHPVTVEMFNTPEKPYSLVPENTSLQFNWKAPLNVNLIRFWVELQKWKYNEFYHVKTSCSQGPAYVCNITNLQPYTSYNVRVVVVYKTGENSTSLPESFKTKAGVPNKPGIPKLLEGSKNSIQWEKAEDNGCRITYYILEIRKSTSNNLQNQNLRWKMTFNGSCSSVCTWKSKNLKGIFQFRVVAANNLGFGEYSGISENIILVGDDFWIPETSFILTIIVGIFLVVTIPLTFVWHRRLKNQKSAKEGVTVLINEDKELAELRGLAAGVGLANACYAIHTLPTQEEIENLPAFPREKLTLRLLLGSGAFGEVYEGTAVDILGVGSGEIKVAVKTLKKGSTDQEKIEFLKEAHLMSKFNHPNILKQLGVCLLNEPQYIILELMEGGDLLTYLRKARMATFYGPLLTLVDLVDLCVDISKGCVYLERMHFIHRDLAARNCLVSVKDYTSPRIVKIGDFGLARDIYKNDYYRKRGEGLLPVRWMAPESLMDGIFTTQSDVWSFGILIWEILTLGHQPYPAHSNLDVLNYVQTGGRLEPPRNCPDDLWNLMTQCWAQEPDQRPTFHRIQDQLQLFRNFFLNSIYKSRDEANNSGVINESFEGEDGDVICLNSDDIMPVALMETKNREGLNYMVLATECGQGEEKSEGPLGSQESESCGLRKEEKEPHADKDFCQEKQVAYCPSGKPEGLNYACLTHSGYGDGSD
# T2 sequence (P08581 whole entry): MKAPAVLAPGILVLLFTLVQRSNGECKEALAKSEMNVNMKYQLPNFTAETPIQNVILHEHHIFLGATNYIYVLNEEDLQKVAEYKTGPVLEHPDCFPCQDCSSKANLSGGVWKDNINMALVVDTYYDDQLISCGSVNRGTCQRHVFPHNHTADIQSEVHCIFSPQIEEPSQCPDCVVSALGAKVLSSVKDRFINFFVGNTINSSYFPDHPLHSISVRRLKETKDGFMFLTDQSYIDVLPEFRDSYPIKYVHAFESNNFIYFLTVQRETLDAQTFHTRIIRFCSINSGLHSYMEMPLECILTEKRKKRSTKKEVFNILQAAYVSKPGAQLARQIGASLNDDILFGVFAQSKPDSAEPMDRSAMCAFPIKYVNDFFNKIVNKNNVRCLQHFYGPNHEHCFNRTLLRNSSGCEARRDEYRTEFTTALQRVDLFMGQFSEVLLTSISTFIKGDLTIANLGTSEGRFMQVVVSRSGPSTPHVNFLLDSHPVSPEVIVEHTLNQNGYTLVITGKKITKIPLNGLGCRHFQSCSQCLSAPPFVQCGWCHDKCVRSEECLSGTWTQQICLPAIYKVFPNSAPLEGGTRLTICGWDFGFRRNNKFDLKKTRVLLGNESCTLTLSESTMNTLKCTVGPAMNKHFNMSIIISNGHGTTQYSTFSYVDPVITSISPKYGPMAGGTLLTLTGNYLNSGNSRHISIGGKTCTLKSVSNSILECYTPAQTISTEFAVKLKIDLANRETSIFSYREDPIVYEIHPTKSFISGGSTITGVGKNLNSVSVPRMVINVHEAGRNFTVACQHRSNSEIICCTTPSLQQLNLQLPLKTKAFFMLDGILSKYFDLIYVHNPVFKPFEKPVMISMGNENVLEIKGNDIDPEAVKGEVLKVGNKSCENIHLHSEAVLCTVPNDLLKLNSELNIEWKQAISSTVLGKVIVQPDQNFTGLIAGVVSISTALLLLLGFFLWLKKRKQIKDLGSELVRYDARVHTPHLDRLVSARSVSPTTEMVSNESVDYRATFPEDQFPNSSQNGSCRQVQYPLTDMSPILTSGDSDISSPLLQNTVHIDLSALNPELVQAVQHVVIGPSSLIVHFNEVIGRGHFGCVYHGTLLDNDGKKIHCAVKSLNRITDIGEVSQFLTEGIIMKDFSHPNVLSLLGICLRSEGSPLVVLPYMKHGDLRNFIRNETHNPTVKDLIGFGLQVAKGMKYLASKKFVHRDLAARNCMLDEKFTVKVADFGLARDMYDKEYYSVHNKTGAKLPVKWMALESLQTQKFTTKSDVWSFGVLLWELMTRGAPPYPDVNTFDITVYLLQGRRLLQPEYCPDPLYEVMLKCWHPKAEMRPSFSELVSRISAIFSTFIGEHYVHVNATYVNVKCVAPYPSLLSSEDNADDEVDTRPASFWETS
compound,measurement,setting,value
Cc1cc(O)cc(-c2nn(CC#N)cc2-c2cc(NCCCN3CCOCC3)nc(-c3cccnc3)n2)c1,IC50,[1],183 nM
same,IC50,[2],Not Active
COc1cc(C)cc(-c2c(-c3ccnc(-c4ccc(NC(C)=O)cc4)c3)cnn2CC#N)c1,IC50,[3],6250 nM
Cc1ncc(-c2ccnc(-c3cccnc3)c2)c(-c2ccc(F)cc2Cl)n1,IC50,[1],570 nM
Cc1cc(O)cc(-c2nn(CC#N)cc2-c2cc(NCCN3CCOCC3)nc(-c3cccnc3)n2)c1,IC50,[1],478 nM
same,IC50,[2],Not Active
Cc1cc(O)cc(-c2nn(CC#N)cc2-c2cc(NCCCCO)nc(-c3cccnc3)n2)c1,IC50,[1],24 nM
same,IC50,[2],Not Active
COc1ccc(-c2cc(-c3c[nH]nc3-c3cc(C)cc(OC)c3)ccn2)cc1,IC50,[3],1250 nM
COCCCNc1cc(-c2cnc(C)nc2-c2ccc(Cl)cc2Cl)nc(-c2ccccc2)n1,IC50,[4],Not Active
COc1cc(C)cc(-c2nn(CC#N)cc2-c2cc(NCCN3CCOCC3)nc(-c3cccnc3)n2)c1,IC50,[1],148 nM
same,IC50,[2],Not Active
Cc1cc(O)cc(-c2nn(CC#N)cc2-c2cc(NCC(C)C)nc(-c3cccnc3)n2)c1,IC50,[1],780 nM
same,IC50,[2],Not Active
COc1cc(C)cc(-c2nn(CC#N)cc2-c2cc(NCC(C)C)nc(-c3cccnc3)n2)c1,IC50,[1],920 nM
same,IC50,[2],Not Active
Cc1cc(O)cc(-c2nn(CC#N)cc2-c2cc(NCCCO)nc(-c3cccnc3)n2)c1,IC50,[1],108 nM
same,IC50,[2],Not Active
COCCCNc1cc(-c2cnc(C)nc2-c2ccc(Cl)cc2Cl)nc(-c2cccnc2)n1,IC50,[1],357 nM
Cc1ncc(-c2ccnc(-c3cccnc3)c2)c(-c2ccc(Cl)cc2Cl)n1,IC50,[1],330 nM
COc1cc(C)cc(-c2nn(CC#N)cc2-c2cc(NCCCN3CCOCC3)nc(-c3cccnc3)n2)c1,IC50,[1],88 nM
same,IC50,[2],Not Active
COCCCNc1cc(-c2cnc(C)nc2-c2ccc(F)cc2Cl)nc(-c2ccccc2)n1,IC50,[4],Not Active
Cc1cc(O)cc(-c2nn(CC#N)cc2-c2cc(NC[C@H](C)O)nc(-c3cccnc3)n2)c1,IC50,[1],1.7 nM
same,IC50,[5],11 nM
same,IC50,[6],0.6 nM
COc1cc(N2CCC(N(C)C)CC2)ccc1Nc1ncc(Cl)c(Nc2ccccc2P(C)(C)=O)n1,IC50,[7],1.9 nM
COc1cc(C)cc(-c2nn(CC#N)cc2-c2cc(NCCCCO)nc(-c3cccnc3)n2)c1,IC50,[1],56 nM
same,IC50,[2],Not Active
COc1cc(C)cc(-c2nn(CC#N)cc2-c2cc(NCCCO)nc(-c3cccnc3)n2)c1,IC50,[1],119 nM
same,IC50,[2],Not Active
COCCCNc1cc(-c2cnc(C)nc2-c2ccc(F)cc2Cl)nc(-c2cccnc2)n1,IC50,[1],1330 nM
